# US8192962B2, “Processes for detecting toxic substances” (Daikin Industries, Ltd., priority 2001, dated 2012)
# System: Detoxification protein genes
# Assay: DNA chip mRNA expression in yeast, detoxification protein genes (Table 8)
# Format: cell-based, Saccharomyces cerevisiae S288C
# Summary of the method: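 S. cerevisiae S288C grown at 25° C in YPD were exposed in log phase for two hours to one toxic chemical at a growth-inhibiting, non-lethal concentration; untreated cells served as control. Poly(A) mRNA was reverse-transcribed with Cy3/Cy5-dUTP and hybridized to a whole-genome yeast DNA chip at 65° C for over 12 hours; values are fluorescence ratios versus untreated.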
structure (smiles),measurement,setting,value
"C=CC=O [(14), acrolein]",The level of expressed mRNA in the presence of chemical substance/The level of expressed mRNA in the absence of chemical substance,yeast gene YBL064C,5.0
same,The level of expressed mRNA in the presence of chemical substance/The level of expressed mRNA in the absence of chemical substance,yeast gene YBR008C,4.1
same,The level of expressed mRNA in the presence of chemical substance/The level of expressed mRNA in the absence of chemical substance,yeast gene YBR145W,2.2
same,The level of expressed mRNA in the presence of chemical substance/The level of expressed mRNA in the absence of chemical substance,yeast gene YBR244W,3.7
same,The level of expressed mRNA in the presence of chemical substance/The level of expressed mRNA in the absence of chemical substance,yeast gene YBR293W,1.4
same,The level of expressed mRNA in the presence of chemical substance/The level of expressed mRNA in the absence of chemical substance,yeast gene YCL035C,2.5
same,The level of expressed mRNA in the presence of chemical substance/The level of expressed mRNA in the absence of chemical substance,yeast gene YCL069W,1.3
same,The level of expressed mRNA in the presence of chemical substance/The level of expressed mRNA in the absence of chemical substance,yeast gene YCR083W,2.4
same,The level of expressed mRNA in the presence of chemical substance/The level of expressed mRNA in the absence of chemical substance,yeast gene YDL100C,1.4
same,The level of expressed mRNA in the presence of chemical substance/The level of expressed mRNA in the absence of chemical substance,yeast gene YDL168W,1.6
same,The level of expressed mRNA in the presence of chemical substance/The level of expressed mRNA in the absence of chemical substance,yeast gene YDR256C,1.6
same,The level of expressed mRNA in the presence of chemical substance/The level of expressed mRNA in the absence of chemical substance,yeast gene YDR453C,3.8
same,The level of expressed mRNA in the presence of chemical substance/The level of expressed mRNA in the absence of chemical substance,yeast gene YDR513W,2.0
same,The level of expressed mRNA in the presence of chemical substance/The level of expressed mRNA in the absence of chemical substance,yeast gene YDR538W,0.9
same,The level of expressed mRNA in the presence of chemical substance/The level of expressed mRNA in the absence of chemical substance,yeast gene YEL027W,1.4
same,The level of expressed mRNA in the presence of chemical substance/The level of expressed mRNA in the absence of chemical substance,yeast gene YEL065W,0.4
same,The level of expressed mRNA in the presence of chemical substance/The level of expressed mRNA in the absence of chemical substance,yeast gene YER185W,1.6
same,The level of expressed mRNA in the presence of chemical substance/The level of expressed mRNA in the absence of chemical substance,yeast gene YFL050C,1.0
same,The level of expressed mRNA in the presence of chemical substance/The level of expressed mRNA in the absence of chemical substance,yeast gene YGL013C,0.8
same,The level of expressed mRNA in the presence of chemical substance/The level of expressed mRNA in the absence of chemical substance,yeast gene YGL254W,1.3
same,The level of expressed mRNA in the presence of chemical substance/The level of expressed mRNA in the absence of chemical substance,yeast gene YGR088W,1.3
same,The level of expressed mRNA in the presence of chemical substance/The level of expressed mRNA in the absence of chemical substance,yeast gene YGR138C,0.9
same,The level of expressed mRNA in the presence of chemical substance/The level of expressed mRNA in the absence of chemical substance,yeast gene YGR197C,1.5
same,The level of expressed mRNA in the presence of chemical substance/The level of expressed mRNA in the absence of chemical substance,yeast gene YGR209C,5.0
same,The level of expressed mRNA in the presence of chemical substance/The level of expressed mRNA in the absence of chemical substance,yeast gene YGR224W,0.9
same,The level of expressed mRNA in the presence of chemical substance/The level of expressed mRNA in the absence of chemical substance,yeast gene YHL040C,1.1
same,The level of expressed mRNA in the presence of chemical substance/The level of expressed mRNA in the absence of chemical substance,yeast gene YHL047C,0.5
same,The level of expressed mRNA in the presence of chemical substance/The level of expressed mRNA in the absence of chemical substance,yeast gene YHR008C,1.6
same,The level of expressed mRNA in the presence of chemical substance/The level of expressed mRNA in the absence of chemical substance,yeast gene YHR048W,1.7
same,The level of expressed mRNA in the presence of chemical substance/The level of expressed mRNA in the absence of chemical substance,yeast gene YHR053C,1.5
same,The level of expressed mRNA in the presence of chemical substance/The level of expressed mRNA in the absence of chemical substance,yeast gene YHR055C,1.5
same,The level of expressed mRNA in the presence of chemical substance/The level of expressed mRNA in the absence of chemical substance,yeast gene YIR002C,1.1
same,The level of expressed mRNA in the presence of chemical substance/The level of expressed mRNA in the absence of chemical substance,yeast gene YIR038C,2.5
same,The level of expressed mRNA in the presence of chemical substance/The level of expressed mRNA in the absence of chemical substance,yeast gene YJL101C,1.0
same,The level of expressed mRNA in the presence of chemical substance/The level of expressed mRNA in the absence of chemical substance,yeast gene YJR104C,2.0
same,The level of expressed mRNA in the presence of chemical substance/The level of expressed mRNA in the absence of chemical substance,yeast gene YKL026C,1.8
same,The level of expressed mRNA in the presence of chemical substance/The level of expressed mRNA in the absence of chemical substance,yeast gene YKL064W,1.1
same,The level of expressed mRNA in the presence of chemical substance/The level of expressed mRNA in the absence of chemical substance,yeast gene YKR066C,1.5
same,The level of expressed mRNA in the presence of chemical substance/The level of expressed mRNA in the absence of chemical substance,yeast gene YKR105C,1.2
same,The level of expressed mRNA in the presence of chemical substance/The level of expressed mRNA in the absence of chemical substance,yeast gene YKR106W,1.7
same,The level of expressed mRNA in the presence of chemical substance/The level of expressed mRNA in the absence of chemical substance,yeast gene YLL028W,0.7
same,The level of expressed mRNA in the presence of chemical substance/The level of expressed mRNA in the absence of chemical substance,yeast gene YLL057C,1.1
same,The level of expressed mRNA in the presence of chemical substance/The level of expressed mRNA in the absence of chemical substance,yeast gene YLL060C,10.6
same,The level of expressed mRNA in the presence of chemical substance/The level of expressed mRNA in the absence of chemical substance,yeast gene YLR043C,2.1
same,The level of expressed mRNA in the presence of chemical substance/The level of expressed mRNA in the absence of chemical substance,yeast gene YLR046C,1.3
same,The level of expressed mRNA in the presence of chemical substance/The level of expressed mRNA in the absence of chemical substance,yeast gene YML028W,2.0
same,The level of expressed mRNA in the presence of chemical substance/The level of expressed mRNA in the absence of chemical substance,yeast gene YML116W,2.0
same,The level of expressed mRNA in the presence of chemical substance/The level of expressed mRNA in the absence of chemical substance,yeast gene YMR015C,0.8
same,The level of expressed mRNA in the presence of chemical substance/The level of expressed mRNA in the absence of chemical substance,yeast gene YMR038C,1.1
same,The level of expressed mRNA in the presence of chemical substance/The level of expressed mRNA in the absence of chemical substance,yeast gene YNL239W,1.3
same,The level of expressed mRNA in the presence of chemical substance/The level of expressed mRNA in the absence of chemical substance,yeast gene YNL241C,1.1
same,The level of expressed mRNA in the presence of chemical substance/The level of expressed mRNA in the absence of chemical substance,yeast gene YNL259C,1.4
same,The level of expressed mRNA in the presence of chemical substance/The level of expressed mRNA in the absence of chemical substance,yeast gene YOL158C,1.0
same,The level of expressed mRNA in the presence of chemical substance/The level of expressed mRNA in the absence of chemical substance,yeast gene YOR031W,1.5
same,The level of expressed mRNA in the presence of chemical substance/The level of expressed mRNA in the absence of chemical substance,yeast gene YOR153W,0.3
same,The level of expressed mRNA in the presence of chemical substance/The level of expressed mRNA in the absence of chemical substance,yeast gene YOR247W,0.4
same,The level of expressed mRNA in the presence of chemical substance/The level of expressed mRNA in the absence of chemical substance,yeast gene YOR251C,1.1
same,The level of expressed mRNA in the presence of chemical substance/The level of expressed mRNA in the absence of chemical substance,yeast gene YOR273C,0.5
same,The level of expressed mRNA in the presence of chemical substance/The level of expressed mRNA in the absence of chemical substance,yeast gene YPL163C,0.6
same,The level of expressed mRNA in the presence of chemical substance/The level of expressed mRNA in the absence of chemical substance,yeast gene YPR200C,2.0
